Literature values in patent publication US8680293B2, “Substituted CC-1065 analogs and their conjugates” (Syntarga B.V., priority 2007, dated 2014).

Details: reason it could not be used in the clinic

For `COc1c(O)c2c(c3cc(C(=O)N4CCc5c4c(O)c(OC)c4[nH]c(C(=O)N6CC7CC78C6=CC(=O)c6[nH]cc(C)c68)cc54)[nH]c13)CCN2C(N)=O` (stereo not shown) [CC-1065], the hepatotoxicity is given as “serious delayed hepatotoxicity”.
